Laboratory results: patent US20090257985A1, “METHODS OF REGULATING EXPRESSION OF GENES OR OF GENE PRODUCTS USING SUBSTITUTED TETRACYCLINE COMPOUNDS” (priority 2006, published 2009)

Key:
[1] = described in Mansuy and Bujard Curr. Op. Neurobiol. 10:593-96; cited from earlier work
rtTA2s-M2 [2] = test: Activation of rtTA2s-M2 in vitro; format: cell-based; settings: relative to doxycycline
rtTA2-MT2 = test: rtTA-mediated gene activation, luciferase positive cell line MT2; format: cell-based
Description: (§1) FIGS. 2A-2D show a comparison of doxycycline and 9-t-butyl doxcycline in 34R and MT2 rtTA mutants. FIGS. 2A and 2B show the effect of doxycyline on 34R and MT2 mutants, respectively. FIGS. 2C and 2D show the effect of 9-t-butyl doxycycline on 34R and MT2 mutants, respectively.

rtTA2-34R = test: rtTA-mediated gene activation, luciferase positive cell line 34R; format: cell-based; settings: FIGS. 2A and 2C
Description: as §1

rtTA2s-M2 [3] = test: Activation of rtTA2s-M2 gene in vivo, bioluminescence of bitransgenic mice rTA M2CaMK-1/LC1; settings: 0.2 mg/mL in drinking water with 5% sucrose, seven days, compared with doxycycline at 2 mg/mL
Experimental: 9-t-butyl doxycycline was tested in bitransgenic mice with rTA M2CaMK-1/LC1. The mice expressed the rtTA2s-M2 gene under control of the forebrain specific α-CamKII promoter. In addition, the LC1 mouse had luciferase and cre genes under the control of the bi-directional promoter. The mice were adminstered doxycycline (2 mg/mL) for seven days in the drinking water with 5% sucrose or with 9-t-butyl doxycycline at (0.2 and 2 mg/mL). The mice were anaesthetized with avertin and injected with […] (IP) and placed in the bioluminescence chamber and measured 5 minutes later.

rtTA = settings: in vitro; relative to doxycycline
[4] = system: tet operator-linked nucleotide sequence; settings: as demonstrated in U.S. Pat. No. 5,789,156; cited from earlier work

## C[C@H]1c2cccc(O)c2C(=O)C2=C(O)[C@]3(O)C(=O)C(C(N)=O)=C(O)[C@@H](N(C)C)[C@@H]3[C@@H](O)[C@@H]21 [doxycycline]
[1]
  penetration of the blood-brain barrier: limited penetration of the blood-brain barrier

## 5-phenylcarbamate doxcycline
rtTA2s-M2 [2]
  activation of rtTA2s-M2 compared with doxycycline: two fold better activiator

## 9-t-butyl doxycycline
rtTA2-MT2; FIGS. 2B and 2D
  activity compared with doxycycline, MT2 rtTA mutant: ten times more active
rtTA2-MT2; rtTA2-MT2 system
  concentration at which full induction of the system occurred: 10 ng/mL
rtTA2-34R
  activity compared with doxycycline, 34R rtTA mutant: ten times more active
rtTA2s-M2 [3]
  activation response (luciferase bioluminescence): better activation response
rtTA
  concentration inducing all rtTA's, lower than doxycycline: 10 fold

## Cc1c2c(c(O)c3c(O)cccc13)C(=O)[C@]1(O)C(=O)C(C(N)=O)=C(O)[C@@H](N(C)C)[C@@H]1C2 [anhydrotetracycline]
[4]
  strength as inducing agent: strong inducing agents
